# In ChEMBL document CHEMBL1148540, “Tetrahydrobenzothiophene inhibitors of hepatitis C virus NS5B polymerase” (Bioorg Med Chem Lett, 2006):
# Assays:
# [1] = target: T1, RNA-directed RNA polymerase (Hepacivirus hominis, UniProt O39930); test: Inhibitory activity against delta-21 C-terminally truncated HCV 1b (BB7 isolate) RNA dependent RNA polymerase; parameters: species or system Hepatitis C virus subtype 1b
# [2] = target: T1, RNA-directed RNA polymerase; test: Inhibitory activity against HCV 4a NS5B full length RNA dependent RNA polymerase; parameters: species or system Hepatitis C virus subtype 4a
# [3] = Permeability across Caco-2 cell membrane; assay type: ADME, cell-based; conditions: human, read-out: permeability
# T1 sequence (O39930 whole entry, the tested form may be a part): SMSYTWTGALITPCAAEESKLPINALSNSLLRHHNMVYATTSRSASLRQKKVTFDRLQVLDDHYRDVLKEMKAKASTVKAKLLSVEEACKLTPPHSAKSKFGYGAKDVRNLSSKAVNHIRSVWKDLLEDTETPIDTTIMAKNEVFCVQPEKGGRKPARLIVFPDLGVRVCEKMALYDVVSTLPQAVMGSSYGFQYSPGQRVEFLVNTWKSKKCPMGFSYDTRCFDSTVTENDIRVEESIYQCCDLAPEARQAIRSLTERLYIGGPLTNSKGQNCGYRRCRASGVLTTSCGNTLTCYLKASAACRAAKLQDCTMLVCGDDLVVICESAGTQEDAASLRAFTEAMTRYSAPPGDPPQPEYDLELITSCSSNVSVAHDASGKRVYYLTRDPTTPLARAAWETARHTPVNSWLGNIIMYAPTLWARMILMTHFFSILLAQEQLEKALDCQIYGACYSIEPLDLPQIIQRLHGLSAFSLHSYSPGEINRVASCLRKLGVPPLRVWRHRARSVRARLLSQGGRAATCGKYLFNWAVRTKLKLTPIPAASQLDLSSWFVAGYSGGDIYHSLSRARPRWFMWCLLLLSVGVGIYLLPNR
SMILES,IC50 [1] [nM],IC50 [2] [nM],Papp [3] [×10⁻⁶ cm/s]
CCOC(=O)c1c(NC(=O)NS(=O)(=O)c2ccccc2C(F)(F)F)sc2c1CCC(C)(C)C2,200,50,> 3
CCOC(=O)c1c(NC(=O)NS(=O)(=O)c2ccccc2OC(F)(F)F)sc2c1CCC(C)(C)C2,400,150,> 3
CCOC(=O)c1c(NC(=O)NS(=O)(=O)N2CCOCC2)sc2c1CCC(C)(C)C2,2500,300,–
CCOC(=O)c1c(NC(=O)NS(=O)(=O)c2ccc(C)cc2)sc2c1C(C)CCC2 (centres undefined),–,2000,–
CCOC(=O)c1c(NC(=O)NS(=O)(=O)N2CCCCC2)sc2c1CCC(C)(C)C2,1000,200,–
CCOC(=O)c1c(NC(=O)NS(=O)(=O)c2ccnn2C)sc2c1CCC(C)(C)C2,260,50,> 3
CCOC(=O)c1c(NC(=O)NS(=O)(=O)N2CCN(C)CC2)sc2c1CCC(C)(C)C2,2000,400,–
CCOC(=O)c1c(NC(=O)NS(=O)(=O)N2CCCCCC2)sc2c1CCC(C)(C)C2,1100,500,–
CCOC(=O)c1c(NC(=O)NS(=O)(=O)c2ccccc2)sc2c1CCC(C)(C)C2,200,90,> 3
CCOC(=O)c1c(NC(=O)NS(=O)(=O)c2ccc(C)cc2)sc2c1CC(C)CC2 (centres undefined),–,500,–
CCOC(=O)c1c(NC(=O)NS(=O)(=O)c2nccn2C)sc2c1CCC(C)(C)C2,150,80,> 3
CCOC(=O)c1c(NC(=O)NS(=O)(=O)c2ccc(C)cc2)sc2c1CCCC2,–,1000,–
CCOC(=O)c1c(NC(=O)NS(=O)(=O)N2CCCC2)sc2c1CCC(C)(C)C2,400,200,–
CCOC(=O)c1c(NC(=O)c2nccnc2C(=O)O)sc2c1CCCC2,–,4000,–
CCOC(=O)c1c(NC(=O)NS(=O)(=O)c2cccc(OC)c2)sc2c1CCCC2,–,1200,–
CCOC(=O)c1c(NC(=O)NS(=O)(=O)c2ccc([N+](=O)[O-])cc2)sc2c1CCCC2,–,2800,–
CCOC(=O)c1c(NC(=O)NS(C)(=O)=O)sc2c1CCCC2,–,3800,–

SMILES,IC50 [1] [nM],IC50 [2] [nM],Papp [3] [×10⁻⁶ cm/s]
CCOC(=O)c1c(NC(=O)NS(=O)(=O)c2cccc(C)c2)sc2c1CCCC2,–,900,–
CCOC(=O)c1c(NC(=O)NS(=O)(=O)c2ccc(C)cn2)sc2c1CCC(C)(C)C2,200,50,> 3
CCOC(=O)c1c(NC(=O)NS(=O)(=O)c2ccccc2)sc2c1CCCC2,–,700,–
CCOC(=O)c1c(NC(=O)NS(=O)(=O)N2CCc3ccccc3C2)sc2c1CCC(C)(C)C2,600,100,–
CCOC(=O)c1c(NC(=O)NS(=O)(=O)c2ccc(F)cc2)sc2c1CCC(C)(C)C2,500,60,> 3
CCOC(=O)c1c(NC(=O)NS(=O)(=O)N2CCc3ccccc32)sc2c1CCC(C)(C)C2,260,200,–
CCOC(=O)c1c(NC(=O)NS(=O)(=O)c2ccc(F)cc2)sc2c1CCCC2,–,1700,–
CCOC(=O)c1c(NC(=O)NS(=O)(=O)c2ccc(C)cc2)sc2c1CCC(C)(C)C2,400,90,> 3
CCOC(=O)c1c(NC(=O)NS(=O)(=O)c2cccc3ccccc23)sc2c1CCCC2,–,700,–
CCOC(=O)c1c(NC(=O)NS(=O)(=O)c2ccccc2C)sc2c1CCCC2,–,900,–
CCCCS(=O)(=O)NC(=O)Nc1sc2c(c1C(=O)OCC)CCCC2,–,4900,–
CCOC(=O)c1c(NC(=O)NS(=O)(=O)c2ccc(C)cc2)sc2c1CCC(C)C2 (centres undefined),–,200,–
CCOC(=O)c1c(NC(=O)NS(=O)(=O)c2ncccn2)sc2c1CCC(C)(C)C2,300,50,> 3
CCOC(=O)c1c(NC(=O)NS(=O)(=O)c2ccc(C#N)cc2)sc2c1CCC(C)(C)C2,400,90,> 3
CCOC(=O)c1c(NC(=O)NS(=O)(=O)c2ccc(Cl)cc2)sc2c1CCCC2,–,1000,–
CCOC(=O)c1c(NC(=O)NS(=O)(=O)c2ccccn2)sc2c1CCC(C)(C)C2,150,40,> 3
CCOC(=O)c1c(NC(=O)NS(=O)(=O)N2CCN(C(C)=O)CC2)sc2c1CCC(C)(C)C2,600,300,–
